Results as given in the NIST ThermoML archive (doi:10.1021/acs.jced.8b00837).
“And” between values parts separate entries of the source, which are not always exact repeats. Equal entries are not always repeated. ± gives the expanded uncertainty stated by the source.

Conditions: Liquid, Vibrating tube method

CCCCn1cc[n+](C)c1.O=S(=O)([O-])C(F)(F)F [1-butyl-3-methylimidazolium trifluoromethanesulfonate]
Conditions	mass density
333.15 K, 79293 kPa	1313.31 ± 2.5 kg/m3
333.15 K, 89992 kPa	1318.4 ± 2.7 kg/m3
333.15 K, 98041 kPa	1322.14 ± 2.8 kg/m3
333.15 K, 109813 kPa	1327.45 ± 3 kg/m3
333.16 K, 49998 kPa	1298.5 ± 2.1 kg/m3
333.16 K, 59777 kPa	1303.59 ± 2.2 kg/m3
333.16 K, 119774 kPa	1331.81 ± 3.1 kg/m3
333.16 K, 129813 kPa	1336.09 ± 3.3 kg/m3
333.16 K, 138881 kPa	1339.86 ± 3.5 kg/m3
333.17 K, 39827 kPa	1293.05 ± 1.9 kg/m3
343.15 K, 101 kPa	1262.32 ± 1.4 kg/m3
353.13 K, 5397 kPa	1257.9 ± 1.5 kg/m3
353.14 K, 1725 kPa	1255.5 ± 1.4 kg/m3
353.14 K, 10408 kPa	1261.13 ± 1.5 kg/m3
353.14 K, 60245 kPa	1290.27 ± 2.2 kg/m3
353.14 K, 69993 kPa	1295.39 ± 2.3 kg/m3
353.14 K, 79196 kPa	1300.06 ± 2.4 kg/m3
353.14 K, 119409 kPa	1318.82 ± 3 kg/m3
353.15 K, 101 kPa	1254.61 ± 1.4 kg/m3 and 1254.43 ± 1.4 kg/m3
353.15 K, 49992 kPa	1284.69 ± 2 kg/m3
353.15 K, 89993 kPa	1305.36 ± 2.6 kg/m3
353.15 K, 97743 kPa	1309.04 ± 2.7 kg/m3
353.15 K, 109795 kPa	1314.57 ± 2.9 kg/m3
353.15 K, 129794 kPa	1323.26 ± 3.2 kg/m3
353.16 K, 40316 kPa	1279.23 ± 1.9 kg/m3
353.16 K, 139089 kPa	1327.11 ± 3.4 kg/m3
353.17 K, 29996 kPa	1273.21 ± 1.8 kg/m3
353.19 K, 20124 kPa	1267.23 ± 1.6 kg/m3
373.12 K, 78937 kPa	1286.82 ± 2.4 kg/m3
373.14 K, 1630 kPa	1240.5 ± 1.5 kg/m3
373.14 K, 4913 kPa	1242.76 ± 1.5 kg/m3
373.14 K, 40245 kPa	1265.34 ± 1.9 kg/m3
373.14 K, 69993 kPa	1282.13 ± 2.2 kg/m3
373.14 K, 89993 kPa	1292.43 ± 2.5 kg/m3
373.14 K, 99354 kPa	1297.01 ± 2.6 kg/m3
373.14 K, 109823 kPa	1301.97 ± 2.8 kg/m3
373.15 K, 101 kPa	1239.37 ± 1.5 kg/m3 and 1239.44 ± 1.5 kg/m3
373.15 K, 20238 kPa	1252.94 ± 1.7 kg/m3
373.15 K, 29993 kPa	1259.1 ± 1.8 kg/m3
373.15 K, 49994 kPa	1271.05 ± 2 kg/m3
373.15 K, 59359 kPa	1276.34 ± 2.1 kg/m3
373.15 K, 118844 kPa	1306.11 ± 2.9 kg/m3
373.15 K, 129824 kPa	1311 ± 3.1 kg/m3
373.15 K, 139225 kPa	1315.08 ± 3.2 kg/m3
373.16 K, 10553 kPa	1246.58 ± 1.6 kg/m3
393.12 K, 20141 kPa	1238.76 ± 1.6 kg/m3
393.13 K, 29997 kPa	1245.39 ± 1.7 kg/m3
393.13 K, 39789 kPa	1251.72 ± 1.8 kg/m3
393.14 K, 10362 kPa	1231.9 ± 1.5 kg/m3
393.14 K, 99285 kPa	1284.99 ± 2.6 kg/m3
393.14 K, 118691 kPa	1294.13 ± 2.9 kg/m3
393.15 K, 101 kPa	1224.37 ± 1.4 kg/m3 and 1224.41 ± 1.4 kg/m3
393.15 K, 49984 kPa	1258.04 ± 1.9 kg/m3
393.15 K, 69997 kPa	1269.67 ± 2.2 kg/m3
393.15 K, 89992 kPa	1280.34 ± 2.4 kg/m3
393.15 K, 109795 kPa	1290.04 ± 2.7 kg/m3
393.15 K, 129796 kPa	1299.01 ± 3 kg/m3
393.15 K, 139693 kPa	1303.18 ± 3.2 kg/m3
393.16 K, 60109 kPa	1264.05 ± 2 kg/m3
393.16 K, 79320 kPa	1274.76 ± 2.3 kg/m3
393.17 K, 1385 kPa	1225.37 ± 1.5 kg/m3
393.18 K, 5168 kPa	1228.15 ± 1.5 kg/m3
413.13 K, 1691 kPa	1210.63 ± 1.4 kg/m3
413.13 K, 99873 kPa	1273.17 ± 2.5 kg/m3
413.15 K, 101 kPa	1209.6 ± 1.4 kg/m3 and 1209.39 ± 1.4 kg/m3
413.15 K, 5006 kPa	1213.19 ± 1.5 kg/m3
413.15 K, 80334 kPa	1262.84 ± 2.2 kg/m3
413.15 K, 89994 kPa	1268.07 ± 2.4 kg/m3
413.15 K, 109886 kPa	1278.08 ± 2.6 kg/m3
413.17 K, 129886 kPa	1287.14 ± 2.9 kg/m3
413.17 K, 139479 kPa	1291.12 ± 3.1 kg/m3
413.18 K, 69993 kPa	1256.95 ± 2.1 kg/m3
413.18 K, 119193 kPa	1282.42 ± 2.8 kg/m3
413.2 K, 10288 kPa	1217.19 ± 1.5 kg/m3
413.2 K, 19961 kPa	1224.32 ± 1.6 kg/m3
413.2 K, 29916 kPa	1231.38 ± 1.7 kg/m3
413.2 K, 39957 kPa	1238.21 ± 1.8 kg/m3
413.2 K, 49993 kPa	1244.75 ± 1.9 kg/m3
413.21 K, 59956 kPa	1250.96 ± 2 kg/m3
